Measurements published in patent publication US7534801B2, “Piperidinylchromen-6-ylsulfonamide compounds as 5-hydroxytryptamine-6 ligands” (Wyeth, priority 2003, dated 2009).
Where a name gives a salt, the structure may show the parent alone.

How the values were obtained:
[1] = biological target: human cloned 5-HT6 receptors (Homo sapiens, UniProt P50406)
Chain of human cloned 5-HT6 receptors (P50406 whole entry): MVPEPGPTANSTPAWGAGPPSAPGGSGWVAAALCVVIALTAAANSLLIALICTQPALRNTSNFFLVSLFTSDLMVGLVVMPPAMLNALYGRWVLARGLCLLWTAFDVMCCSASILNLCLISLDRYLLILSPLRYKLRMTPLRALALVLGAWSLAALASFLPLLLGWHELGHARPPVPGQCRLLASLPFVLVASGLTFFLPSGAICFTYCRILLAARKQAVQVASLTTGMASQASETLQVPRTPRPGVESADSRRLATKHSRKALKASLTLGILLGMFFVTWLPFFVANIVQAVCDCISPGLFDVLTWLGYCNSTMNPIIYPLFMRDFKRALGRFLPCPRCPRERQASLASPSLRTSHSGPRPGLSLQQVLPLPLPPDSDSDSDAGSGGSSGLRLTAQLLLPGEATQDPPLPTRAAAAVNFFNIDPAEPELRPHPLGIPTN

Structure (SMILES) | Ki [1] [nM] | melting point [°C]
O=S(=O)(Nc1ccc2c(c1)C(C1CCNCC1)=CCO2)c1ccccc1 [Example 14, N(4-Piperidin-4-yl-2H-chromen-6-yl)benzenesulfonamide Hemihydrate] | 1 | –
O=S(=O)(Nc1ccc2c(c1)C(C1CCNCC1)=CCO2)c1ccc(Cl)cc1 [Example 15, 4-chloro-N-(4-piperidin-4-yl-2H-chromen-6-yl)benzenesulfonamide] | 2 | > 240
O=S(=O)(Nc1ccc2c(c1)C(C1CCNCC1)=CCO2)c1cccc2ccccc12 [Example 16, N-(4-piperidin-4-yl-2H-chromen-6-yl)naphthalene-1-sulfonamide] | 2 | –
O=S(=O)(Nc1ccc2c(c1)C(C1CCNCC1)CCO2)c1ccccc1 (centres unmarked) [Example 23, N(4-Piperidin-4-dihydro-2H-chromen-6-yl)benzenesulfonamid Hydrochloride] | 12 | –
